Measurements reported in patent US20250215403A1, “Compositions and Methods for Cardiac Tissue Regeneration” (Temple University - Of The Commonwealth System Of Higher …, priority 2022, published 2025).

Assays:
cardiomyocytes (CM) [1] = assay: Mouse MI model: immunostaining of heart sections for CM cell cycle markers (ki67, pH3, BrdU, Aurora B); format: in vivo; settings: SSP gene modRNA delivery; 7 days post-MI
Procedure: (§1) All surgical and experimental procedures with mice were performed in accordance with protocols approved by Institutional Animal Care and Use Committees at Temple University Animal Care and Use Committee (IACUC). C57BL6 or CM-specific MADM mice (8-12-weeks-old) were anesthetized with isoflurane. MI was induced by permanent ligation of the LAD, as previously described (Garikipati, V. N. S., et al., 2019, Nature Communications, 10:4317). Briefly, the left thoracic region was shaved and sterilized. After intubation, the heart was exposed through a left thoracotomy. A suture was placed to ligate the LAD. The thoracotomy and skin were sutured closed in layers. Excess air was removed from the thoracic cavity, and the mouse was removed from ventilation when normal breathing was established. In order to determine the effect of modRNA on cardiovascular outcome after MI, modRNAs (100 μg/heart) were injected into the infarct zone immediately after LAD ligation (Magadum A., et al., Circulation. 2020, 141 (15): 1249-1265). For examination of heart histology, hearts were collected at the end of each study, quickly washed in PBS, weighed, and fixed in 4% PFA for cryo-sectioning and immunostainings. In all experiments, the surgeon was blinded to the treatment group. For assessment of heart histology, hearts were collected at the end of each study. The hearts were excised, briefly washed in PBS, perfused with perfusion buffer, weighed and fixed in 4% PFA at 4° C. overnight. The heart blocks were transverse sectioned at 6-8 μm using cryostat. The heart sections were further processed for histological evaluation using immunostaining (see below) or histological scar staining using Masson's trichrome staining kit (Sigma) according to standard procedures. Measuring the ratio of heart weight to body weight was done using a scale. This ratio was calculated as the heart tissue weight relative to the mouse total body weight in grams (g).
Mice were injected with AAV9-GFP or AAV9-YAP1-shRNA (GeneCopoeia) through retro-orbital injection 7 days before LAD. A total of 5×10^11 viral genomes (50 μl total volume delivered) was injected per mouse. The level of YAP1 inhibition was determined at the mRNA level by qPCR 14 days post injection.
Mice hearts were harvested, weighed, and fixed in 4% PFA/PBS overnight on shaker and then washed with PBS for 1 hour and incubated in 30% sucrose/PBS at 4° C. for 12-18 hours. Hearts were then fixed in OCT and frozen at −80° C. (Magadum A., et al., Circulation. 2020, 141 (15): 1249-1265). Transverse heart sections (6-8 μm) were made using a cryostat. Frozen sections were rehydrated in PBS for 5-10 min followed by permeabilization with PBS with 0.1% Triton™ X100 (PBST) for 7-8 min. Heart sections were then treated with 3% H2O2 for 5 min and washed (3×5 min) with PBST. The samples were then blocked with PBS+10% Donkey normal serum+0.1% Triton™ X100 (PBSST) for 1 hour at room temperature. Primary antibodies (see complete list of primary antibodies used for this Example in Table 2 below) diluted in PBST were added and incubated overnight at 4° C. Slides were washed with PBST (3×5 min) followed by incubation with a secondary antibody (Invitrogen, 1:200) diluted in PBST for 90-120 min at room temperature. The samples were further washed with PBST (3×5 min) and stained with DAPI or Hoechst 33342 (1 μg/ml) diluted in PBST for 7 min. After being washed with PBST (3×7 min) and tap water (1×5 min) slides were mounted with mounting medium (VECTASHIELD®) for imaging (Magadum A., et al., Circulation. 2020, 141 (15): 1249-1265). Stained slides were stored at 4° C. All staining was performed on 4-8 hearts/group, with 2-3 sections/heart. For immunostaining with wheat germ agglutinin (WGA) for CM size quantification, images were captured at 40× magnification, and ImageJ was used to determine the area of each cell. […]

cardiomyocytes (CM) [2] = assay: Mouse MI model: TUNEL staining of CM apoptosis; format: in vivo; settings: SSP gene modRNA delivery; 7 days post-MI
Procedure: as §1
Mice hearts were harvested, weighed, and fixed in 4% PFA/PBS overnight on shaker and then washed with PBS for 1 hour and incubated in 30% sucrose/PBS at 4° C. for 12-18 hours. Hearts were then fixed in OCT and frozen at −80° C. (Magadum A., et al., Circulation. 2020, 141 (15): 1249-1265). Transverse heart sections (6-8 μm) were made using a cryostat. […] For immunostaining with wheat germ agglutinin (WGA) for CM size quantification, images were captured at 40× magnification, and ImageJ was used to determine the area of each cell. Quantitative analyses involved counting of multiple fields from 5-8 mouse hearts per group, and 3-4 sections/heart (˜50 cells per field assessed, for a total ˜250 cells per sample). […] BrdU positive CMs were counted in multiple fields from three independent samples per group and 3 sections/heart. […]

Molecule	CM cell cycle (pH3+ CMs) (cardiomyocytes (CM) [1])	CM apoptosis (TUNEL+ CMs) (cardiomyocytes (CM) [2])
PHGDH: modRNA encoding phosphoglycerate dehydrogenase (ORF SEQ ID NO: 6)	partially induced	inhibited
PSPH: modRNA encoding phosphoserine phosphatase (ORF SEQ ID NO: 5) (nucleic acid, modRNA) DNA: ATGGTCTCCCACTCAGAGCTGAGGAAGCTCTTCTGTTCAGCGGATGCAGTGTGCTTTGATGTTGATAGCACCGTCATCAGAGAAGAAGGAATCGATGAGCTGGCCAAATTCTGTGGTGTGGAGGCCGCAGTGTCTGAAATGACACGGAGAGCCATGGGAGGAGCATTGCCTTTTAAAGACGCGCTCACTCAGCGCCTGGCACTGATCCAGCCCTCCAGGGATCAAGTCCAGAGGCTCCTAGCTGAGCACCCGCCACATCTGACTCCTGGCATAAGGGAGCTGGTAAGCCGCCTCCAGGAGCGTAATGTCCAGGTGTTCCTCATCTCTGGTGGCTTTCGGAGCATTGTGGAGCACGTTGCTGCAAAGCTCAATATCCCAACAACCAATGTGTTTGCCAATAGGCTGAAGTTCTACTTTAATGGTGAGTACGCAGGTTTTGATGAGATGCAGCCGACAGCCGAGTCGGGTGGGAAAGGAAAGGTTATTCGGTTTTTAAAGGAAAAATTTCACTTTAAGAAAATAATCATGATTGGAGATGGAGCTACGGACATGGAAGCCTGTCCTCCTGCTGATGCTTTCATTGGCTTTGGAGGCAATGTGATCAGGCAGCAGGTTAAGGACAACGCCAAGTGGTACATCACTGACTTCGTGGAGCTGCTGGGAGAACTGGAGGAGTGA	partially induced	inhibited
